Measurements from patent US20190076406A1, “METHODS AND COMPOSITIONS FOR TREATING CONDITIONS ASSOCIATED WITH ANGIOGENESIS USING A VASCULAR ADHESION PROTEIN-1 (VAP-1) INHIBITOR” (MASSACHUSETTS EYE & EAR INFIRMARY, priority 2007, published 2019).

Columns and labels:
[1] = target: T1, rat semicarbazide-sensitive amine oxidase (SSAO) (Rattus norvegicus, UniProt O08590); assay: IC50 against rat SSAO; type: biochemical
T1 sequence (O08590 1-763): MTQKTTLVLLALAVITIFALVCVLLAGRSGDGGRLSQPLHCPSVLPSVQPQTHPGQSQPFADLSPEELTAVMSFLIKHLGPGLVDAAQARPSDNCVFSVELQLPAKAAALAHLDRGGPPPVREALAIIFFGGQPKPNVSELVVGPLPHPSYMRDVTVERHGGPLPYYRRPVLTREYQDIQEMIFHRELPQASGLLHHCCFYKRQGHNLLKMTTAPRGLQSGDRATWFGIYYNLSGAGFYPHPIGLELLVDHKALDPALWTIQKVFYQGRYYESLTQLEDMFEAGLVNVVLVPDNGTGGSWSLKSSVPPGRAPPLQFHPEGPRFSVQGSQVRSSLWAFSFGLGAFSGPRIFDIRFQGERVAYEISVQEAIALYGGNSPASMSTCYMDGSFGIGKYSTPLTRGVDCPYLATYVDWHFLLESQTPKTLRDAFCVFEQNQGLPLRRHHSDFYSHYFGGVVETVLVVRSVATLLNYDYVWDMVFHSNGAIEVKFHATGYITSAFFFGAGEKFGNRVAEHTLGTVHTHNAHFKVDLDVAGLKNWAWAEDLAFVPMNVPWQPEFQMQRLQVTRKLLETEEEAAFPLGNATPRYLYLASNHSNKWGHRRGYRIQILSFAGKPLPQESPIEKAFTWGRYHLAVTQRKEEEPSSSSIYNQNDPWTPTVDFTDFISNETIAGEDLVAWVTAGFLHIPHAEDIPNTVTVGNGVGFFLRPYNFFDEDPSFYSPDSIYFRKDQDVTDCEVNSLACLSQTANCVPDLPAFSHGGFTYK

MCP-1 = assay: ELISA of MCP-1 in RPE-choroid complex after laser injury; type: in vivo, rat; conditions: 3 days after laser injury; 0.3 mg/kg daily i.p.; mean±SEM
Procedure: (§1) Brown-Norway rats were anesthetized with 0.2-0.3 ml of a 50:50 mixture of 100 mg/ml Ketamine and 20 mg/ml Xylazine. Pupils were dilated with 5.0% Phenylephrine and 0.8% Tropicamide. CNV was induced with a 532 nm laser (Oculight GLx, Iridex, Mountain View, Calif.). Six laser spots (150 mW, 100 μm, 100 msec) were placed in each eye using a slit-lamp delivery system and a cover glass as a contact lens. Production of a bubble at the time of laser confirmed the rupture of the Bruch's membrane.
(§2) To block VAP-1, a specific VAP-1 inhibitor, Compound II described above, was used (R-tech Ueno, Ltd., Tokyo, Japan). […]
(§3) The RPE-choroid complex was carefully isolated from eyes 3 days after photocoagulation and placed in 300 μl of lysis buffer supplemented with protease inhibitors and sonicated. The lysate was centrifuged at 15,000 rpm for 15 minutes at 4° C. and the levels of TNF-α, monocyte chemotactic protein (MCP)-1, and intercellular adhesion molecule (ICAM)-1 were determined with rat TNF-α (BD bioscience), MCP-1 (BD bioscience) and ICAM-1 (R&D Systems, Minneapolis, Minn.) enzyme-linked immunosorbent assay (ELISA) kits according to the manufacturers' protocols. Total protein concentration was determined using a Bio-Rad Protein Assay Kit (Bio-Rad Laboratories Hercules, Calif.) and dilutions of bovine serum albumin (Bio-Rad Laboratories) as standards.

ICAM-1 = assay: ELISA of ICAM-1 in RPE-choroid complex after laser injury; type: in vivo, rat; conditions: 3 days after laser injury; 0.3 mg/kg daily i.p.; mean±SEM
Procedure: as §1, §2, §3

[2] = system: IL-1β-induced corneal angiogenesis in BALB/c mice; assay: IL-1β-induced corneal angiogenesis; type: in vivo, mouse; conditions: day 6 after pellet implantation; 0.3 mg/kg daily i.p.
Procedure: (§4) BALB/c mice were anesthetized by intrapcritoneal (i.p.) injection of pentobarbital sodium (60 mg/kg). Hydron pellets (0.3 μl) containing 30 ng mouse IL-1β (401-ML; R&D Systems) were prepared and implanted into the corneas. Pellets were positioned 1 mm from the corneal limbus. Implanted eyes were treated with Bacitracin ophthalmic ointment (E. Fougera & Co.) to prevent infection.
(§5) To block VAP-1, mice received daily i.p. injections of a specific VAP-1 inhibitor, Compound II (R-tech Ueno Ltd., Tokyo, Japan) as described above. A daily dose of 0.3 mg/kg was administered at day 0 and continued until the sixth day after implantation. Two, four and six days after implantation, digital images of the corneal vessels were obtained and recorded using OpenLab software version 2.2.5 (Improvision Inc.) with standardized illumination and contrast and were saved onto disks. The quantitative analysis of new vessel growth in the mouse corneas was performed using Scion Image software (version 4.0.2; Scion Corp.).

[3] = system: IL-1β-induced corneal lymphangiogenesis in BALB/c mice; assay: IL-1β-induced corneal lymphangiogenesis (LYVE-1 stain); type: in vivo, mouse; conditions: IL-1β pellet; i.p. administration; vs vehicle
Procedure: as §4, §5
Eyes were enucleated and fixed with 4% paraformaldehyde for one hour at 4° C. For whole-mount preparation, the corneas were exposed by removing other portions of the eye (i.e. iris, sclera, retina, and conjunctiva). After washing with PBS, tissues were placed in methanol for 20 minutes. […]

- IC50 [1]: 8 nM
SMILES: CC(=O)Nc1nc(CCc2ccc(NC(=N)NN)cc2)c(Cc2ccc(S(C)(=O)=O)cc2)s1 [Compound II]
- MCP-1 protein level in RPE-choroid complex (MCP-1): 662 ± 52 pg/mg
- ICAM-1 protein level in RPE-choroid complex (ICAM-1): 57 ± 2 ng/mg
- neovascular area relative to control mice (IL-1β alone or IL-1β+vehicle) [2]: about half
- growth of lymphatic vessels in cornea [3]: reduced growth of lymphatic vessels
